Data set [1] has as its system liver cancer in rats. The data set is described as follows: Experiment 3: depression of liver cancer induced by 3'-Me-DAB in rats. In kind it is in vivo, Wister male rats. The text has this: The present inventor asked Prof. Nobuhiko Kanno, Biological Laboratory, Dept. of Pharmacology, Toyama Medical and Pharmacologival University, to test the activity of the present antiviral substance to depress the liver cancer in rats on pathogens of viruses.
1. Test animals: Wister male rats of 4 weeks of age were fed for 5 days as usual and tested.
2. Carcinogenic substance: 3'-methyl-4-dimethyl amino azobenzene (3'-Me-DAB) [drawing 1]
(1) Control group: standard food
(2) L group: standard food+L
(3) L+DAB group 0.06% 3'-Me-DAB containing food+L
(4) DAB group 0.06% 3'-Me-DAB containing food
Note: L: a frozen dry powder of the extract of the nutrient medium and tissue-medium of Lentinus edodes DAB: 3'-Me-DAB
4. Quantity and the method of giving the freeze-dried powder of the extract of the nutrient medium and tissue-medium of Lentinus edodes […]
The freeze-dried powder of the nutrient medium and tissue-medium of Lentinus edodes was dissolved in physiological salt water, and given intraperitoneally; the same dose of physiological salt water was similarly given to the control group.

The subject of data set [2] is liver cancer in rats. To be noted: rat's liver; cited from earlier work.

Take `Cc1cccc(N=Nc2ccc(N(C)C)cc2)c1` [3'-Me-DAB, 3'-methyl-4-dimethyl amino azobenzene]: the “liver finding at autopsy” value in data set [1] (dissection, after 14 and 18 weeks) is “fine yellowish white particles which seemed to be cancerous tissue were seen all over the liver”. The “microscopic findings of the liver tissue” value in data set [1] (hematoxin-eosin) is “severe disarrangement of cells and the glandular structure specific to liver cancer (adeno carcinoma)”. The depilation result in data set [1] (microscopic observation, within about 5 and 15 weeks) is “depilation appeared on the abdomen in some a rats”. Also, the carcinogenic property result in data set [2] was “specific and strong carcinogenic property”.

Values taken from patent US4629627A, “Antiviral substance and the manufacturing method thereof” (priority 1978, dated 1986).
